Several values for one entry are separate records, joined by “and”; a condition that tells them apart may be missing. Equal values may be shown once. Toxic doses and inconclusive results are not listed. How the source made its calls: active means survival T/C of 150% or more; inactive means T/C below 125% in these data.
Tested on: P388 leukemia ip, CD2F1 mice, survival T/C
Assay: NCI In Vivo Anticancer Drug Screen. Data for tumor model P388 Leukemia (intraperitoneal) in CD2F1 (CDF1) mice
Conditions: endpoint: median survival time, higher = longer survival
In short: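 Mice carrying the transplanted tumor received test compound or vehicle. Survival was recorded in each group, and the value is the treated-group measurement divided by that of the vehicle-treated control group.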

[1] = dose: 60.0 mg/kg/injection, schedule: Q01DX005 (ip), vehicle: saline with Tween-80
[2] = dose: 120.0 mg/kg/injection, schedule: Q01DX005 (ip), vehicle: saline with Tween-80
[3] = dose: 50.0 mg/kg/injection, schedule: Q01DX009 (ip), vehicle: Klucel (hydroxypropylcellulose) (HPC)

Measured: T/C

Oc1ccc2ccccc2c1C=NCCS
inactive: [1] 87 % of control | [2] 87 % of control

O=C1CC2C(C1Nc1ccccc1)C1C(=Nc3ccccc3)C(Nc3ccccc3)=CC1N2c1ccccc1 (stereo not given)
inactive: dose: 7.5 mg/kg/injection, schedule: Q01DX005 (ip), vehicle: Klucel (hydroxypropylcellulose) (HPC) 100 % of control | dose: 15.0 mg/kg/injection, schedule: Q01DX005 (ip), vehicle: Klucel (hydroxypropylcellulose) (HPC) 97 % of control | dose: 30.0 mg/kg/injection, schedule: Q01DX005 (ip), vehicle: Klucel (hydroxypropylcellulose) (HPC) 95 % of control

Fc1ccc(-c2cc(-c3cc(-c4ccc(F)cc4)n[nH]3)[nH]n2)cc1
inactive: dose: 60.0 mg/kg/injection, schedule: Q01DX005 (ip), vehicle: Klucel + Tween-80 91 % of control | dose: 120.0 mg/kg/injection, schedule: Q01DX005 (ip), vehicle: Klucel + Tween-80 88 % of control | dose: 240.0 mg/kg/injection, schedule: Q01DX005 (ip), vehicle: Klucel + Tween-80 88 % of control

O=c1oc(-c2ccc([N+](=O)[O-])cc2Cl)nc2ccccc12
inactive: dose: 50.0 mg/kg/injection, schedule: Q01DX009 (ip), vehicle: saline 106 % of control | dose: 100.0 mg/kg/injection, schedule: Q01DX009 (ip), vehicle: saline 105 % of control | dose: 200.0 mg/kg/injection, schedule: Q01DX009 (ip), vehicle: saline 106 % of control

C=C1C(=O)O[C@@H]2[C@@H]3O[C@@](C)(CC[C@H](OC(C)=O)[C@@H]3CO)C[C@@H](OC(=O)/C(=C\C)COC(C)=O)[C@@H]12
inactive: dose: 25.0 mg/kg/injection, schedule: Q01DX005 (ip), vehicle: Klucel (hydroxypropylcellulose) (HPC) 101 % of control

N#Cc1nc(CC(=O)c2ccncc2)c(CC(=O)c2ccncc2)nc1C#N
inactive: dose: 60.0 mg/kg/injection, schedule: Q01DX005 (ip), vehicle: saline 109 % of control | dose: 120.0 mg/kg/injection, schedule: Q01DX005 (ip), vehicle: saline 106 % of control | dose: 240.0 mg/kg/injection, schedule: Q01DX005 (ip), vehicle: saline 97 % of control

NC(CC(=O)c1ccc(O)cc1)C(=O)O (stereo not given)
inactive: [3] 99 % of control | dose: 100.0 mg/kg/injection, schedule: Q01DX009 (ip), vehicle: Klucel (hydroxypropylcellulose) (HPC) 100 % of control | dose: 200.0 mg/kg/injection, schedule: Q01DX009 (ip), vehicle: Klucel (hydroxypropylcellulose) (HPC) 92 % of control

CS(=O)(=O)OCCN(CCOS(C)(=O)=O)c1ccc(C=Nc2ccc(-c3csc(COc4ccccc4)n3)cc2)cc1
active: dose: 12.5 mg/kg/injection, schedule: Q01DX009 (ip), vehicle: Klucel (hydroxypropylcellulose) (HPC) 150 % of control and 151 % of control | dose: 25.0 mg/kg/injection, schedule: Q01DX009 (ip), vehicle: Klucel (hydroxypropylcellulose) (HPC) 151 % of control and 154 % of control and 164 % of control | [3] 162 % of control and 164 % of control and 166 % of control
inactive: dose: 25.0 mg/kg/injection, schedule: Q01DX009 (oral), vehicle: Klucel (hydroxypropylcellulose) (HPC) 101 % of control and 104 % of control | dose: 50.0 mg/kg/injection, schedule: Q01DX009 (oral), vehicle: Klucel (hydroxypropylcellulose) (HPC) 101 % of control and 106 % of control | dose: 100.0 mg/kg/injection, schedule: Q01DX009 (oral), vehicle: Klucel (hydroxypropylcellulose) (HPC) 102 % of control and 108 % of control | dose: 200.0 mg/kg/injection, schedule: Q01DX009 (oral), vehicle: Klucel (hydroxypropylcellulose) (HPC) 107 % of control | dose: 400.0 mg/kg/injection, schedule: Q01DX009 (ip), vehicle: Klucel (hydroxypropylcellulose) (HPC) 112 % of control | dose: 400.0 mg/kg/injection, schedule: Q01DX009 (oral), vehicle: Klucel (hydroxypropylcellulose) (HPC) 109 % of control | dose: 800.0 mg/kg/injection, schedule: Q01DX009 (oral), vehicle: Klucel (hydroxypropylcellulose) (HPC) 109 % of control

CC(C)=CCC(OC(=O)C=C(C)C)c1cc(O)c2c(O)ccc(O)c2c1O.[Fe] (stereo not given)
inactive: dose: 100.0 mg/kg/injection, schedule: Q04DX002 (ip), vehicle: saline with Tween-80 92 % of control | dose: 200.0 mg/kg/injection, schedule: Q04DX002 (ip), vehicle: saline with Tween-80 92 % of control | dose: 400.0 mg/kg/injection, schedule: Q04DX002 (ip), vehicle: saline with Tween-80 93 % of control

COc1ccc(OC)c(NC(=O)CCCC(=O)C(C#N)c2nc3ccccc3s2)c1 (stereo not given)
inactive: [1] 105 % of control | [2] 108 % of control | dose: 240.0 mg/kg/injection, schedule: Q01DX005 (ip), vehicle: saline with Tween-80 100 % of control

CCOC1=CS(C)(=O)=NC(SC)=C1C#N (stereo not given)
inactive: dose: 50.0 mg/kg/injection, schedule: Q01DX001 (ip), vehicle: Klucel (hydroxypropylcellulose) (HPC) 99 % of control | dose: 100.0 mg/kg/injection, schedule: Q01DX001 (ip), vehicle: Klucel (hydroxypropylcellulose) (HPC) 105 % of control | dose: 200.0 mg/kg/injection, schedule: Q01DX001 (ip), vehicle: Klucel (hydroxypropylcellulose) (HPC) 99 % of control

CN(C)CCC(C#N)(CCC1CCCCC1)c1ccccc1 (stereo not given)
inactive: dose: 10.0 mg/kg/injection, schedule: Q01DX009 (ip), vehicle: saline 103 % of control | dose: 20.0 mg/kg/injection, schedule: Q01DX009 (ip), vehicle: saline 104 % of control | dose: 40.0 mg/kg/injection, schedule: Q01DX009 (ip), vehicle: saline 103 % of control

Source: PubChem BioAssay AID330 (DTP/NCI, 2004)
